Source: patent publication US5155109A, “3-piperazinosydnone imines, process for their preparation and their use” (Cassella Aktiengesellschaft, priority 1990, dated 1992)
Counter-ions that a name gives are not always drawn.

System: spiral strips of the pulmonary artery of the guinea-pig
Assay: Relaxation of potassium-depolarised, CaCl2-contracted pulmonary artery spiral strips (modified method of Godfraind and Kaba and of Schuman et al.)
Conditions: for IC50: Cavia porcellus, 40 mmol/l potassium depolarised, contraction induced by 0.5 mmol/l CaCl2, cumulative addition in 1/2 log 10 steps, average of 4 to 6 vessel strips, read-out: IC50 (concentration of the test substance which inhibits the contraction by 50%); for Duration of action: time needed after addition of the test substance until the starting value is obtained again
Method: The pharmacological action of the compounds of the formula I was determined by a modified method of Godfraind and Kaba (Arch. Int. Pharmacodyn. Ther. 196, (Suppl) 35 to 49, 1972) and of Schuman et al. (Naunyn-Schmiedeberg,s Arch. Pharmacol. 289, 409 to 418, 1975). In this connection, spiral strips of the pulmonary artery of the guinea-pig are depolarised with 40 mmol/1 of potassium after equilibration in calcium-free Tyrode solution. An addition of 0.5 mmol/1 of CaCl2 then induces a contraction. The relaxing action of the test substance is determined by cumulative addition in 1/2 log 10 stepped concentrations. From the concentration-effect curve (abscissa: -log mol/1 of test substance, ordinate: % inhibition of the maximum contraction, average value of 4 to 6 vessel strips), the concentration of the test substance is determined which inhibits the contraction by 50% (=IC50, mol/1). The duration of action of the test substance is given by the time which is needed after the addition of the test substance until the starting value is obtained again. […] On the other hand, the similarly active compound SIN-1 is clearly surpassed by the compounds according to the invention with respect to its duration of action.

Row | SMILES | IC50 [µM] | Duration of action [min]
1 | CCOC(=O)[N-]c1cn(N2CCOCC2)n[o+]1 [Molsidomine, NEthoxycarbonyl-3-morpholinosydnone imine, reference compound] | 300 | 100
2 | Cc1ccc(S(=O)(=O)N2CCN([n+]3cc(=N)o[n-]3)C(C)(C)C2)cc1.Cl [Example 2, 3-(2,2-Dimethyl-4-tosylpiperazin-1-yl)sydnone imine hydrochloride] | 0.65 | 220
3 | CC1(C)CN(S(C)(=O)=O)CCN1[n+]1cc(=N)o[n-]1.Cl [Example 1, 3-(2,2-Dimethyl-4-methanesulphonylpiperazin-1-yl)sydnone imine hydrochloride] | 1.9 | 200
4 | CN(C)S(=O)(=O)N1CCN([n+]2cc(=N)o[n-]2)C(C)(C)C1 [Example 3, 3-(2,2-Dimethyl-4-dimthylaminosulphonylpiperazin-1-yl)sydnone imine hydrochloride] | 2.5 | 200

Continued, in another order:

Row | IC50 [µM] | SMILES | Duration of action [min]
5 | 3 | CC(C)C(=O)N=c1c[n+](N2CCN(S(C)(=O)=O)CC2(C)C)[n-]o1 [CH3, drawing 12] | 210
6 | 1 | Cl.N=c1c[n+](N2CCOCC2)[n-]o1 [SIN-1, 3Morpholinosydnone imine hydrochloride, reference compound] | 80
